Reference: patent US9273040B2 (Merck Sharp & Dohme Corp., priority 2011, dated 2016)

Key:
Assay type in all cases: cell-based
[1] = target: T1, human Nav1.7 channels stably expressed in HEK 293 cells (Homo sapiens, UniProt Q15858); assay: IonWorks Quattro automated patch-clamp, sodium current, inactivated state block; conditions: read-out: potency for the Nav 1.7 sodium ion channel (as measured by IonWorks)
T1 construct: expressed in transfected cells
Experimental: (§1) Compounds were tested on human Nav1.7 and Nav1.5 channels stably expressed in HEK 293 cells. […] Cells were sealed on a planar substrate using the Population Patch Plate (PPC) technology. Electrical access was obtained using both nystatin and amphotericin. A double-pulse protocol was used for the determination of IC50 values for inactivated state block. Nav1.7 and Nav1.5 expressing cells were voltage clamped at −100 mV and −110 mV, respectively. A depolarizing prepulse to −10 mV (Nav1.7) or −30 mV (Nav1.5) for 1000 ms followed by a 10 ms repolarization to −100 mV (Nav1.7) or −110 mV (Nav1.5) was given to generate fractional channel inactivation of ˜50%, followed by a 10 ms test pulse to −10 mV (Nav1.7) or −30 mV (Nav1.5) to measure peak current in control conditions and after compound addition. The following recording solutions were used (mM). External: 150 NaCl, 2 CaCl2, 5 KCl, 1 Mg Cl2, 10 HEPES, 12 Dextrose; internal: 120 CsF, 30 CsCl, 10 EGTA, 5 HEPES, 5 NaF, 2 MgCl2.
(§2) For all electrophysiology experiments, offline analysis was used to correct for current rundown and to determine percent inhibition as a function of drug concentration. IC50 values were determined by fitting to the Hill equation.

[2] = target: T2, human Nav1.5 channels stably expressed in HEK 293 cells (Homo sapiens, UniProt Q14524); assay: as above; conditions: selectivity over Nav1.5
T2 construct: expressed in transfected cells
Experimental: as §1, §2

[3] = target: T1, human Nav1.7 channels stably expressed in HEK 293 cells; assay: PatchXpress 7000 automated patch-clamp, sodium current; conditions: 22° C., read-out: potency for the Nav 1.7 sodium ion channel (as measured by PatchXpress)
Procedure, shortened: (§3)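 IC50 values came from Hill-equation fits of rundown-corrected inhibition. PatchXpress recordings at 22° C held cells 20 mV negative to V0.5 inact and applied 10 Hz trains of 30 ms steps to −20 mV (Nav1.7) or an 8000 ms prepulse 7 mV positive to V0.5 inact. […]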

[4] = target: T2, human Nav1.5 channels stably expressed in HEK 293 cells; assay: as above; conditions: selectivity over Nav1.5
Procedure, shortened: as §3

T2 sequence (Q14524 whole entry): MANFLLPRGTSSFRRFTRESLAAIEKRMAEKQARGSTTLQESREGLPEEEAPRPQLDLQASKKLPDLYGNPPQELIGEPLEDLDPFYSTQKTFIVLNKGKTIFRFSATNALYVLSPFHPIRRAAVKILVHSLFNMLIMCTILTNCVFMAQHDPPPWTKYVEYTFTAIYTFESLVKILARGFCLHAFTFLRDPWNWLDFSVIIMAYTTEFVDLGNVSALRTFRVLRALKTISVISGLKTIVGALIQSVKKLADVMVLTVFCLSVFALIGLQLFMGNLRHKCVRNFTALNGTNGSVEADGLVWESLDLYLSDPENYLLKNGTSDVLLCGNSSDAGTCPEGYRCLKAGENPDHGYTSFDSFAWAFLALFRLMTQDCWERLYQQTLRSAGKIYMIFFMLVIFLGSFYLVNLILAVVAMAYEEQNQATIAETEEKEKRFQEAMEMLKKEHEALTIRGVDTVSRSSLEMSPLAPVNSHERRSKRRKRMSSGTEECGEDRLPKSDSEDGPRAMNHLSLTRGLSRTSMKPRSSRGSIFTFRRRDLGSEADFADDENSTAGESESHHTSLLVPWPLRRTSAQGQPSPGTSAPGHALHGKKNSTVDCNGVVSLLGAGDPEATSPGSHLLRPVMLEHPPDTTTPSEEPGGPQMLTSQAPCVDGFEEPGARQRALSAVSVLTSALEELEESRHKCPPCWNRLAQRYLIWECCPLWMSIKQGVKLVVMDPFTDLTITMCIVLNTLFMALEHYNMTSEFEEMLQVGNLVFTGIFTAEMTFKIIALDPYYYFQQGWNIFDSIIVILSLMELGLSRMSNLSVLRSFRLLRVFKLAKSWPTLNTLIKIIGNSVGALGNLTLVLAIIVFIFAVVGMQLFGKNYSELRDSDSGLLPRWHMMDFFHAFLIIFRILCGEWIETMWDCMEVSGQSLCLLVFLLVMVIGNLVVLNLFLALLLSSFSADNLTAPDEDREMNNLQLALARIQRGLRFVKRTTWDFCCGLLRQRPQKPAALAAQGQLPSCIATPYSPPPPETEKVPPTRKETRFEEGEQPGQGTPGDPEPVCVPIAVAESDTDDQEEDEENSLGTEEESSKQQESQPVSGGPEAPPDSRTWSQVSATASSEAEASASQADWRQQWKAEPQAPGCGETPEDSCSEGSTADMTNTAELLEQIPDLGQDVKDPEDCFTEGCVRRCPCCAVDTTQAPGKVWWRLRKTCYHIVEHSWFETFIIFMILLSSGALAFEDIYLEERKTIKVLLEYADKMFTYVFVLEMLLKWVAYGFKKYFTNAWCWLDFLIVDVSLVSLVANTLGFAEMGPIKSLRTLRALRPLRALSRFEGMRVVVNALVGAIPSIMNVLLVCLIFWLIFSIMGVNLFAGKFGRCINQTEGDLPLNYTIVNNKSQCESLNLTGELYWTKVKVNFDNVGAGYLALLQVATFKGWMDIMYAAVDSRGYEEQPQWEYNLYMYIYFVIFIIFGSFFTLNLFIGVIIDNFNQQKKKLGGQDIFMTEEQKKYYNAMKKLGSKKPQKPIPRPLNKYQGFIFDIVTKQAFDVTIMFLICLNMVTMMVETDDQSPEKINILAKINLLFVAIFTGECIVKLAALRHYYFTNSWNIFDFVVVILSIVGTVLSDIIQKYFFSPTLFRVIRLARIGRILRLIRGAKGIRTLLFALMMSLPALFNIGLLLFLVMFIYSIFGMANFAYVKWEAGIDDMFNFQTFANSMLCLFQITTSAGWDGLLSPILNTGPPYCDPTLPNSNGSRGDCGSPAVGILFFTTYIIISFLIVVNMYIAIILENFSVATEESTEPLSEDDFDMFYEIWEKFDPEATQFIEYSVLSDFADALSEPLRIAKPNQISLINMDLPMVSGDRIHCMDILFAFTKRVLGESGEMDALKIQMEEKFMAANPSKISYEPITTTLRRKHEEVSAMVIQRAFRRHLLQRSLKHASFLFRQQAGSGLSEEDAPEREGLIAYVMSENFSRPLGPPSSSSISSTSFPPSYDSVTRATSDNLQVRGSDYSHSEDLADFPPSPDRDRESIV
T1 sequence (Q15858 whole entry): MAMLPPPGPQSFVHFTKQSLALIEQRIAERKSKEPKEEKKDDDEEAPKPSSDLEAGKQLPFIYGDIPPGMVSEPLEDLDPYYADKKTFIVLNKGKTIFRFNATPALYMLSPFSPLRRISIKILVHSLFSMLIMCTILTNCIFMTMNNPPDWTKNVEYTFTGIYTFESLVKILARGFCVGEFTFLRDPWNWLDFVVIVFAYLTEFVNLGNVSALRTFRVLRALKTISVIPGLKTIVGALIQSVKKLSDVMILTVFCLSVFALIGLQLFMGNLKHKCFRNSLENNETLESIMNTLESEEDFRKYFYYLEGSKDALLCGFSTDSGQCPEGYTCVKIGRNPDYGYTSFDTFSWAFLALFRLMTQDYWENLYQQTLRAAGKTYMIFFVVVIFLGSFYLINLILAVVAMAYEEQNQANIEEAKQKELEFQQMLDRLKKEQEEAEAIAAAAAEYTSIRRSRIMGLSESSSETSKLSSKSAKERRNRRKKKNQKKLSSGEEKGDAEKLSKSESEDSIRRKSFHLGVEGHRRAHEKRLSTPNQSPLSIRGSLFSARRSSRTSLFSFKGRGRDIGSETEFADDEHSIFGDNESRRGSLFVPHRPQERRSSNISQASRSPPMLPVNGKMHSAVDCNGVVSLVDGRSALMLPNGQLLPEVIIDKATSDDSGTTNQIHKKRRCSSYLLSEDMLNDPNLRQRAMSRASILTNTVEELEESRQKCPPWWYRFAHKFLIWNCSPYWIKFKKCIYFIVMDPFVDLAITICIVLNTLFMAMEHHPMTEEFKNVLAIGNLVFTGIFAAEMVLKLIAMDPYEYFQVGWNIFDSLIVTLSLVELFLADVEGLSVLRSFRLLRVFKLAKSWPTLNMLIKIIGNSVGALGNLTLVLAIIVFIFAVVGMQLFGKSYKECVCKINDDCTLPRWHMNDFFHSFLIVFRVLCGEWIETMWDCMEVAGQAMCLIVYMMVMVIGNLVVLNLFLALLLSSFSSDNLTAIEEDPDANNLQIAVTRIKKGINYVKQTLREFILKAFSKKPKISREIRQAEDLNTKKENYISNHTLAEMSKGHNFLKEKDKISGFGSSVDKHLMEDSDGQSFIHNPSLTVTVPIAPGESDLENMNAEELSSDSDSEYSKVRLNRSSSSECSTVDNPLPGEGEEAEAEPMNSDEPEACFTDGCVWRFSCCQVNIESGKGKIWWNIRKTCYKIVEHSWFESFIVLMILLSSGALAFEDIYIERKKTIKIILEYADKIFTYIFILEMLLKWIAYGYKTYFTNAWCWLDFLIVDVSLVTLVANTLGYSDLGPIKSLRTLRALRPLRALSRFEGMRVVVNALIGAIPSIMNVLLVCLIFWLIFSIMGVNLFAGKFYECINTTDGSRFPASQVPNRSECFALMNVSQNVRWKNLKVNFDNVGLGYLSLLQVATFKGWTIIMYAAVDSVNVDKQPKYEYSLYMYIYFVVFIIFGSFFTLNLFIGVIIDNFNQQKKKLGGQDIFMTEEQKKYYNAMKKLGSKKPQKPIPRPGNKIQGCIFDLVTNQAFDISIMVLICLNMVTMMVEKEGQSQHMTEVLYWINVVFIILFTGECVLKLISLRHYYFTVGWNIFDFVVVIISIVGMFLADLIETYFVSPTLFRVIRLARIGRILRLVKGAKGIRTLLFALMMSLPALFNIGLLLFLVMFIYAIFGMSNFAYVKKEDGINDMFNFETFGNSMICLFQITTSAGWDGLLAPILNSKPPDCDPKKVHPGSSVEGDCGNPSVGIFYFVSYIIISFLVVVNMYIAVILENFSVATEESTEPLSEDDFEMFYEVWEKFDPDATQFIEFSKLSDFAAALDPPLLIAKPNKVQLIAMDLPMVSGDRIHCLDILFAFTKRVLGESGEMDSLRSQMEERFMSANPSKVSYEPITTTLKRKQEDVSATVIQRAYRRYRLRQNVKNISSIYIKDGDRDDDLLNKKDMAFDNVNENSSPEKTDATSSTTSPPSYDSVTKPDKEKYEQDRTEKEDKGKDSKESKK

Row | SMILES | IC50 [1] [µM] | ratio of Nav 1.5:Nav 1.7 potency, determined by IonWorks measurement [2] | IC50 [3] [µM] | ratio of Nav 1.5:Nav 1.7 potency, determined by PatchXpress measurement [4]
1 | CC(c1cccc2c1CNCC2)n1c(=O)oc2cc(S(=O)(=O)Nc3ncns3)ccc21 (stereo not shown) [Compound 4-14, 2-oxo-3-[1-(1,2,3,4-tetrahydroisoquinolin-8-yl)ethyl]-N-1,2,4-thiadiazol-5-yl-2,3-dihydro-1,3-benzoxazole-6-sulfonamide] | 0.025 | > 1338 | 0.061 | > 495
2 | O=c1oc2cc(S(=O)(=O)Nc3ncns3)ccc2n1C(c1ccccc1)C1CC1 (stereo not shown) [Compound 4-12, 3-[cyclopropyl(phenyl)methyl]-2-oxo-N-1,2,4-thiadiazol-5-yl-2,3-dihydro-1,3-benzoxazole-6-sulfonamide] | 1.04 | > 32 | – | –
3 | C[C@H](c1ccccc1)n1c(=O)oc2cc(S(=O)(=O)Nc3ncns3)c(F)cc21 [Compound 13-3, 5-fluoro-2-oxo-3-[(1R)-1-phenylethyl]-N-1,2,4-thiadiazol-5-yl-2,3-dihydro-1,3-benzoxazole-6-sulfonamide] | 0.021 | 418 | 0.042 | 162
4 | C[C@@H](c1cccc2c1CNCC2)n1c(=O)oc2cc(S(=O)(=O)Nc3ncns3)c(F)cc21 [Compound 11-6, 5-fluoro-2-oxo-3-[(1S)-1-(1,2,3,4-tetrahydroisoquinolin-8-yl)ethyl]-N-1,2,4-thiadiazol-5-yl-2,3-dihydro-1,3-benzoxazole-6-sulfonamide] | 0.576 | 57 | 0.322 | > 93
5 | CC(c1ccccn1)n1c(=O)oc2cc(S(=O)(=O)Nc3ncns3)c(F)cc21 (stereo not shown) [Compound 13-6, 5-fluoro-2-oxo-3-(1-pyridin-2-ylethyl)-N-1,2,4-thiadiazol-5-yl-2,3-dihydro-1,3-benzoxazole-6-sulfonamide] | 0.065 | > 511 | – | –
6 | O=c1oc2cc(S(=O)(=O)Nc3ncns3)ccc2n1Cc1ccccc1C1=CCCNC1 [Compound 3-6, 2-oxo-3-[2-(1,2,5,6-tetrahydropyridin-3-yl)benzyl]-N-1,2,4-thiadiazol-5-yl-2,3-dihydro-1,3-benzoxazole-6-sulfonamide] | 0.287 | – | 0.329 | > 91
7 | O=c1oc2cc(S(=O)(=O)Nc3ncns3)ccc2n1Cc1cccc2c1CCNC2 [Compound 1-16, 2-oxo-3-(1,2,3,4-tetrahydroisoquinolin-5-ylmethyl)-N-1,2,4-thiadiazol-5-yl-2,3-dihydro-1,3-benzoxazole-6-sulfonamide] | 1.69 | – | 3.21 | > 9
8 | NCc1ccc(Cl)cc1Cn1c(=O)oc2cc(S(=O)(=O)Nc3ncns3)ccc21 [Compound 1-15, 3-[2-(aminomethyl)-5-chlorobenzyl]-2-oxo-N-1,2,4-thiadiazol-5-yl-2,3-dihydro-1,3-benzoxazole-6-sulfonamide] | 0.605 | > 55 | – | –
9 | O=c1oc2cc(S(=O)(=O)Nc3ncns3)ccc2n1Cc1cccc2ccncc12 [Compound 1-17, 3-(isoquinolin-8-ylmethyl)-2-oxo-N-1,2,4-thiadiazol-5-yl-2,3-dihydro-1,3-benzoxazole-6-sulfonamide] | 0.216 | 65 | – | –
10 | NC/C=C/c1ccccc1Cn1c(=O)oc2cc(S(=O)(=O)Nc3ncns3)c(F)cc21 [Compound 12-3, 3-{2-[(1E)-3-Aminoprop-1-en-1-yl]benzyl}-5-fluoro-2-oxo-N-(1,2,4-thiadiazol-5-yl)-2,3-dihydro-1,3-benzoxazole-6-sulfonamide] | 0.005 | 6084 | 0.027 | 1096
11 | NCc1ccccc1Cn1c(=O)oc2cc(S(=O)(=O)Nc3ncns3)ccc21 [Compound 1-14, 3-[2-(aminomethyl)benzyl]-2-oxo-N-1,2,4-thiadiazol-5-yl-2,3-dihydro-1,3-benzoxazole-6-sulfonamide] | 0.265 | > 125 | 0.365 | 45
12 | O=c1oc2cc(S(=O)(=O)Nc3ncns3)ccc2n1Cc1cccc(-c2cccc3c2CNCC3)c1 [Compound 3-13, 2-oxo-3-[3-(1,2,3,4-tetrahydroisoquinolin-8-yl)benzyl]-N-1,2,4-thiadiazol-5-yl-2,3-dihydro-1,3-benzoxazole-6-sulfonamide] | 0.395 | > 83 | – | –
13 | O=c1oc2cc(S(=O)(=O)Nc3ncns3)ccc2n1Cc1ccccc1-c1ccccc1N1CCNCC1 [Compound 3-9, 2-oxo-3-[(2′-piperazin-1-ylbiphenyl-2-yl)methyl]-N-1,2,4-thiadiazol-5-yl-2,3-dihydro-1,3-benzoxazole-6-sulfonamide] | 0.563 | > 59 | – | –
14 | O=c1oc2cc(S(=O)(=O)Nc3ncns3)ccc2n1Cc1cccc(C2=CCNCC2)c1 [Compound 3-16, 2-oxo-3-[3-(1,2,3,6-tetrahydropyridin-4-yl)benzyl]-N-1,2,4-thiadiazol-5-yl-2,3-dihydro-1,3-benzoxazole-6-sulfonamide] | 0.759 | > 43 | – | –
15 | O=c1oc2cc(S(=O)(=O)Nc3ncns3)ccc2n1Cc1cccc(C2=CCNCCC2)c1 [Compound 3-17, 2-oxo-3-[3-(2,5,6,7-tetrahydro-1H-azepin-4-yl)benzyl]-N-1,2,4-thiadiazol-5-yl-2,3-dihydro-1,3-benzoxazole-6-sulfonamide] | 0.827 | > 40 | – | –
16 | C[C@@H](c1ccccc1)n1c(=O)oc2cc(S(=O)(=O)Nc3ncns3)ccc21 [Compound 4-8, 2-oxo-3-[(1S)-1-phenylethyl]-N-1,2,4-thiadiazol-5-yl-2,3-dihydro-1,3-benzoxazole-6-sulfonamide] | 1.48 | > 22 | – | –
17 | C=CCC(c1ccccc1)n1c(=O)oc2cc(S(=O)(=O)Nc3ncns3)ccc21 (stereo not shown) [Compound 4-13, 2-oxo-3-(1-phenylbut-3-en-1-yl)-N-1,2,4-thiadiazol-5-yl-2,3-dihydro-1,3-benzoxazole-6-sulfonamide] | 0.272 | – | 0.088 | 177
18 | O=c1oc2cc(S(=O)(=O)Nc3ncns3)ccc2n1Cc1cccc(-c2cccc3c2CCNC3)c1 [Compound 3-14, 2-oxo-3-[3-(1,2,3,4-tetrahydroisoquinolin-5-yl)benzyl]-N-1,2,4-thiadiazol-5-yl-2,3-dihydro-1,3-benzoxazole-6-sulfonamide] | 0.43 | 35 | – | –
19 | O=c1oc2cc(S(=O)(=O)Nc3ncns3)ccc2n1C(c1ccccc1)c1ncco1 (stereo not shown) [Compound 4-10, 3-[1,3-oxazol-2-yl(phenyl)methyl]-2-oxo-N-1,2,4-thiadiazol-5-yl-2,3-dihydro-1,3-benzoxazole-6-sulfonamide] | 1.33 | – | 0.643 | > 47
